Measured values as given in US20250353820A1, “ANTIVIRAL PYRAZOLOPYRIDINONE COMPOUNDS” (Novartis AG, priority 2019, published 2025).

What follows are compounds tested against human HSV DNA polymerase UL30 (Human herpesvirus 1 (strain 17) (HHV-1) (Human herpes simplex virus 1), UniProt P04293) (assay: biochemical). Conditions: 625 pM HSV polymerase, 20 minutes at room temperature; read-out: HSV-polymerase Biochemical IC50.

| Compound | IC50 [nM] |
| --- | --- |
| Cn1nc(C2=NOC(c3ccc(C#N)cc3)C2)c2c1C(=O)N(CC1(S(=O)(=O)C3CC3)CC1)CC2 (stereo not shown) [Example 31, 4-(3-(6-((1-(Cyclopropylsulfonyl)cyclopropyl)methyl)-1-methyl-7-oxo-4,5,6,7-tetrahydro-1H-pyrazolo[3,4-c]pyridin-3-yl)-4,5-dihydroisoxazol-5-yl)benzonitrile] | 293 |
| Cn1nc(-c2cc(Cc3ccc(C#N)cc3)on2)c2c1C(=O)N(CC1(S(=O)(=O)C3CC3)CC1)CC2 [Example 34, 4-((3-(6-((1-(Cyclopropylsulfonyl)cyclopropyl)methyl)-1-methyl-7-oxo-4,5,6,7-tetrahydro-1H-pyrazolo[3,4-c]pyridin-3-yl)isoxazol-5-yl)methyl)benzonitrile] | 10 |
| Cn1nc(-c2cn(Cc3ccc(C#N)cc3)nn2)c2c1C(=O)N(CC1(S(=O)(=O)C3CC3)CC1)CC2 [Example 35, 4-((4-(6-((1-(Cyclopropylsulfonyl)cyclopropyl)methyl)-1-methyl-7-oxo-4,5,6,7-tetrahydro-1H-pyrazolo[3,4-c]pyridin-3-yl)-1H-1,2,3-triazol-1-yl)methyl)benzonitrile] | 141 |
| Cn1nc(C(=O)NCc2ccc(Cl)cc2)c2c1C(=O)N(CC1(S(=O)(=O)C(F)F)CC1)CC2 [Example 39, N-(4-Chlorobenzyl)-6-((1-((difluoromethyl)sulfonyl)cyclopropyl)methyl)-1-methyl-7-oxo-4,5,6,7-tetrahydro-1H-pyrazolo[3,4-c]pyridine-3-carboxamide] | 625 |
| N#Cc1ccc(CNC(=O)c2nn(C3CC3)c3c2CCN(CC2(S(=O)(=O)C4CC4)CC2)C3=O)cc1 [Example 43, N-(4-Cyanobenzyl)-1-cyclopropyl-6-((1-(cyclopropylsulfonyl)cyclopropyl)methyl)-7-oxo-4,5,6,7-tetrahydro-1H-pyrazolo[3,4-c]pyridine-3-carboxamide] | 101 |
| O=C(NCc1ccc(Cl)cc1)c1n[nH]c2c1CCN(CC1(S(=O)(=O)C3CC3)CC1)C2=O [Example 44, N-(4-Chlorobenzyl)-6-((1-(cyclopropylsulfonyl)cyclopropyl)methyl)-7-oxo-4,5,6,7-tetrahydro-1H-pyrazolo[3,4-c]pyridine-3-carboxamide] | 137 |
| CS(=O)(=O)C1(CN2CCc3c(nn4c3C(=O)N(Cc3ccc(C#N)cc3)CC4)C2=O)CC1 [Example 46, 4-((8-((1-(Methylsulfonyl)cyclopropyl)methyl)-1,7-dioxo-3,4,7,8,9,10-hexahydropyrido[3′,4′: 3,4]pyrazolo[1,5-a]pyrazin-2 (1H)-yl)methyl)benzonitrile] | 1780 |
| N#Cc1ccc(CNC(=O)c2nn(CC3(CO)CC3)c3c2CCN(CC2(S(=O)(=O)C4CC4)CC2)C3=O)cc1 [Example 47, N-(4-Cyanobenzyl)-6-((1-(cyclopropylsulfonyl)cyclopropyl)methyl)-1-((1-(hydroxymethyl)cyclopropyl)methyl)-7-oxo-4,5,6,7-tetrahydro-1H-pyrazolo[3,4-c]pyridine-3-carboxamide] | 59 |
| CS(=O)(=O)C1(CN2CCc3c(C(=O)NCc4ccc(C#N)cc4)nn(CC4(CO)CC4)c3C2=O)CC1 [Example 48, N-(4-Cyanobenzyl)-1-((1-(hydroxymethyl)cyclopropyl)methyl)-6-((1-(methylsulfonyl)cyclopropyl)methyl)-7-oxo-4,5,6,7-tetrahydro-1H-pyrazolo[3,4-c]pyridine-3-carboxamide] | 801 |
| CC(C)(CO)S(=O)(=O)C1(CN2CCc3c(C(=O)NCc4ccc(C#N)cc4)n[nH]c3C2=O)CC1 [Example 49, N-(4-cyanobenzyl)-6-((1-((1-hydroxy-2-methylpropan-2-yl)sulfonyl)cyclopropyl)methyl)-7-oxo-4,5,6,7-tetrahydro-1H-pyrazolo[3,4-c]pyridine-3-carboxamide] | 37 |
